Test results from patent US20110104159A1, “COMPOSITIONS AND METHODS FOR TREATING, CONTROLLING, REDUCING, AMELIORATING, OR PREVENTING ALLERGY” (priority 2006, published 2011).
Where “and” joins values, the source holds several entries; their conditions need not be identical. Identical values can stand only once.

Key:
[1] = system: rabbit paracentesis model; assay: Clinical evaluation by slit lamp (clinical score), rabbit paracentesis model; assay type: in vivo; set-up: key to Clinical Score −180 min / Clinical Score −5 min / Clinical Score +115 min: 0: normal; 1: discrete dilatation of iris and conjunctival vessels; 2: moderate dilatation of iris and conjunctival vessels; 3: intense iridal hyperemia with flare in the anterior chamber; 4: intense iridal hyperemia with flare in the anterior chamber and presence of fibrinous exudates; settings: for Clinical Score −5 min: 5 min before first paracentesis; for Clinical Score −5 min / Clinical Score +115 min / Clinical Score −180 min: individual eye, scale 0-4; for Clinical Score +115 min: 5 min before second paracentesis; for Clinical Score −180 min: basal
[2] = system: MPO; assay: Myeloperoxidase (MPO) activity in iris-ciliary body; assay type: in vivo, Rabbit; settings: for Mean MPO Unit/g (MPO activity in iris-ciliary body samples): group mean, after the second paracentesis; for MPO Unit/g (raw data of MPO activity in iris-ciliary body samples): individual eyes (DX/SX) of rabbits, samples collected after the second paracentesis
Method: 2.3.2.1 Phosphate Buffer (50 mM; pH=6)
3.9 g of NaH2PO4 2H2O were dissolved in a volumetric flask to 500 ml with water. The pH was adjusted to pH=6 with 3N NaOH.
0.5 g of hexa-decyl-trimethyl-ammonium bromide was dissolved in 100 ml phosphate buffer.
The solution was prepared freshly. Ten microliters of H2O2 (30 wt. %) were diluted to 1 ml with water (solution A). 7.5 mg o-dianisidine 2HCl were dissolved in 45 ml of phosphate buffer and 75 μl of solution A were added.
(§1) Each rabbit was placed in a restraint device and tagged with the alphanumeric code. The formulations were instilled (50 μl) into the conjunctival sac of both eyes 180, 120, 90 and 30 min before the first paracentesis; then 15, 30, 90 min after the first paracentesis. To perform the first paracentesis the animals were anaesthetized by intravenous injection of 5 mg/kg Zoletil® (Virbac; 2.5 mg/kg tiletamine HCl and 2.5 mg/kg zolazepam HCl) and one drop of local anesthetic (Novesina®, Novartis) was administered to the eye. Anterior chamber paracentesis was performed with a 26 G needle attached to a tuberculin syringe; the needle was introduced into the anterior chamber through the cornea, taking care not to damage the tissues. Two hours after the first paracentesis, the animals were sacrificed with 0.4 ml Tanax® (Intervet International B.V.) and the second paracentesis was performed. About 100 μl of aqueous humor were removed at the second paracentesis. Aqueous humor was immediately split in four aliquots and stored at −80° C. until analysis. Then both eyes were enucleated and the iris-ciliary body was carefully excised, placed in polypropylene tubes, and stored at −80° C. until analysis.
The activity of MPO was measured as previously described by Williams et al. The iris-ciliary bodies were carefully dried, weighed and immersed in 1 ml of hexa-decyl-trimethyl-ammonium bromide solution. Then, the samples were sonicated for 10 sec on ice by a ultrasound homogenizer (HD 2070, Bandelin electronic), freeze-thawed three times, sonicated for 10 sec and centrifuged at 14,000 g for 10 min to remove cellular debris. An aliquot of the supernatant (40-200 μl) was diluted to 3 ml with the o-dianisidine 2HCl/H2O2 solution. The change in absorbance at 460 nm was continuously monitored for 5 min by a spectrophotometer (UV/Vis Spectrometer Lambda EZ 201; Perkin Elmer). The slope of the line (Δ/min) was determined for each sample and used to calculate the number of units of MPO in the tissue as follows:
where ε=11.3 mM^−1. Values were expressed as units of MPO/g of tissue.

[3] = system: PGE2; assay: Prostaglandin E2 (PGE2) measurement in aqueous humor; assay type: in vivo, Rabbit; settings: for PGE2 in aqueous humor at the second paracentesis, Mean: group mean; for PGE2 in aqueous humor at the second paracentesis: individual eye sample
Method: as §1
For the quantitative determination of PGE2 in the aqueous humor we used the PGE2 Immunoassay kit (R&D Systems; Cat. No. KGE004; Lot. No. 240010). Eleven microliters or 16 μl of aqueous humor were diluted to 110 μl or 160 μl with the calibrator diluent solution provided with the kit. One hundred microliters of samples and of standards were load into a 96-well plate and recorded in a plate layout. Samples were treated following the assay procedure described in the kit. A microplate reader (GDV, Italy; model DV 990 B/V6) set at 450 nm (wavelength correction at 540 nm) was used for making the calibration and analyzing the samples.

[4] = system: rabbit paracentesis model; assay: Pupillary diameter measurement, rabbit paracentesis model; assay type: in vivo; settings: individual eye; for Pupillary diameter T2: −5 min: 5 min before first paracentesis; for Pupillary diameter T3: +115 min: 5 min before second paracentesis; for Pupillary diameter Δ(T3 − T1): +115 min minus −180 min; for Pupillary diameter T1: −180 min: basal
Method: as §1
The pupillary diameter of both eyes was measured with a Castroviejo caliper 180 min and 5 min before the first paracentesis and 5 min before the second paracentesis.

[5] = system: leukocytes (PMN); assay: Leukocytes (PMN) measurement in aqueous humor; assay type: in vivo, Rabbit; settings: for PMN in aqueous humor at the second paracentesis, Mean: group mean; for PMN in aqueous humor at the second paracentesis: individual eye sample
Method: as §1
For the determination of the number of leukocytes we used a haemocytometer (Improved Neubauer Chamber; Brigth-line, Hausser Scientific) and a Polyvar 2 microscope (Reichert-Jung).

[6] = system: protein concentration in the aqueous humor; assay: Protein measurement in aqueous humor; assay type: in vivo, Rabbit; settings: for Protein in aqueous humor at the second paracentesis, Mean: group mean; for Protein in aqueous humor at the second paracentesis: individual eye sample
Method: as §1
For protein concentration determination in the aqueous humor we used the Protein Quantification Kit (Fluka; Cat. No. 77371; Lot. No. 1303129). Five microliters of aqueous humor were diluted to 100 μl with water. Twenty microliters of samples and of standards were load into a 96-well plate and recorded in a plate layout. Samples were treated following the assay procedure described in the kit. A microplate reader (GDV, Italy; model DV 990 B/V6) set at 670 nm was used for making the calibration and analyzing the samples.

## C[C@@H]1C[C@H]2[C@@H]3CCC4=CC(=O)C=C[C@]4(C)[C@@]3(F)[C@@H](O)C[C@]2(C)[C@@]1(O)C(=O)CO [Dex, Dexamethasone, reference compound]
[1]; 0.1% topical
  Clinical Score −5 min: 0 (6×) and 1 (2×)
  Clinical Score +115 min: 1 (6×) and 3 (2×)
  Clinical Score −180 min: 0
[1]; 0.1% topical, +115 min, 8 eyes
  Percentage of eyes with clinical score 1: 75%
  Percentage of eyes with clinical score 3: 25%
[1]; 0.1% topical, −5 min, 8 eyes
  Percentage of eyes with clinical score 0: 75%
  Percentage of eyes with clinical score 1: 25%
[1]; 0.1% topical, −180 min, 8 eyes
  Percentage of eyes with clinical score 0: 100%
[2]; 0.1% treatment
  Mean MPO Unit/g (MPO activity in iris-ciliary body samples): 0.618 Unit/g
  MPO Unit/g (raw data of MPO activity in iris-ciliary body samples): 0.71 Unit/g and 0.60 Unit/g and 1.32 Unit/g and 0.48 Unit/g (2×) and 0.39 Unit/g and 0.45 Unit/g and 0.51 Unit/g
[3]; 0.1% topical
  PGE2 in aqueous humor at the second paracentesis, Mean: 2.263 ng/mL
  PGE2 in aqueous humor at the second paracentesis: 2.51 ng/ml and 2.32 ng/ml (2×) and 2.10 ng/ml and 3.03 ng/ml and 1.30 ng/ml
[4]; 0.1% topical
  Pupillary diameter T2: −5 min: 5.5 mm and 6.5 mm (3×) and 6.0 mm (2×) and 7.0 mm and 7.5 mm
  Pupillary diameter T3: +115 min: 5.5 mm (3×) and 6.0 mm (2×) and 4.5 mm and 5.0 mm and 6.5 mm
  Pupillary diameter Δ(T3 − T1): −0.5 mm (3×) and −1.5 mm (2×) and 0.5 mm and 0.0 mm and −2.0 mm
  Pupillary diameter T1: −180 min: 6.0 mm and 7.0 mm (2×) and 5.5 mm (2×) and 6.5 mm (3×)
[5]; 0.1% topical
  PMN in aqueous humor at the second paracentesis, Mean: 30.000 number/μl
  PMN in aqueous humor at the second paracentesis: 20 number/μl (3×) and 50 number/μl and 40 number/μl and 30 number/μl
[6]; 0.1% topical
  Protein in aqueous humor at the second paracentesis, Mean: 33.457 mg/mL
  Protein in aqueous humor at the second paracentesis: 31.31 mg/mL and 31.81 mg/mL and 35.95 mg/mL and 37.15 mg/mL and 32.12 mg/mL and 32.40 mg/mL

## CC(C(=O)O)c1ccc(-c2ccccc2)c(F)c1 (centres unmarked) [F, flurbiprofen, reference compound]
[1]; 0.03% topical
  Clinical Score −5 min: 0
  Clinical Score +115 min: 2
  Clinical Score −180 min: 0
[1]; 0.03% topical, +115 min, 8 eyes
  Percentage of eyes with clinical score 2: 100%
[1]; 0.03% topical, −5 min, 8 eyes
  Percentage of eyes with clinical score 0: 100%
[1]; 0.03% topical, −180 min, 8 eyes
  Percentage of eyes with clinical score 0: 100%
[2]; 0.03% topical, p<0.01
  MPO activity in iris-ciliary body, statistical comparison with CTR: statistical significance
[2]; 0.03% treatment
  Mean MPO Unit/g (MPO activity in iris-ciliary body samples): 0.906 Unit/g
  MPO Unit/g (raw data of MPO activity in iris-ciliary body samples): 1.10 Unit/g and 1.70 Unit/g and 0.34 Unit/g and 0.75 Unit/g and 0.74 Unit/g and 0.63 Unit/g and 0.73 Unit/g and 1.27 Unit/g
[3]; 0.03% topical
  PGE2 in aqueous humor at the second paracentesis, Mean: 1.189 ng/mL
  PGE2 in aqueous humor at the second paracentesis: 1.04 ng/ml and 0.75 ng/ml and 0.85 ng/ml and 1.11 ng/ml and 2.11 ng/ml (2×) and 0.93 ng/ml and 0.61 ng/ml
[3]; 0.03% topical, p<0.05
  PGE2 in aqueous humor, statistical comparison with CTR: statistically significant versus CTR
[4]; 0.03% topical
  Pupillary diameter T2: −5 min: 6.0 mm (3×) and 6.5 mm (3×) and 7.0 mm and 5.5 mm
  Pupillary diameter T3: +115 min: 4.0 mm and 3.5 mm and 5.5 mm (2×) and 5.0 mm (2×) and 4.5 mm and 6.0 mm
  Pupillary diameter Δ(T3 − T1): −1.0 mm (3×) and −1.5 mm (3×) and 0.0 mm (2×)
  Pupillary diameter T1: −180 min: 5.0 mm (2×) and 7.0 mm and 6.0 mm (4×) and 5.5 mm
[5]; 0.03% topical
  PMN in aqueous humor at the second paracentesis, Mean: 30.000 number/μl
  PMN in aqueous humor at the second paracentesis: 50 number/μl and 40 number/μl (2×) and 20 number/μl (2×) and 10 number/μl and 30 number/μl
[6]; 0.03% topical
  Protein in aqueous humor at the second paracentesis, Mean: 20.910 mg/mL
  Protein in aqueous humor at the second paracentesis: 20.78 mg/mL and 28.80 mg/mL and 23.41 mg/mL and 20.21 mg/mL and 17.53 mg/mL and 15.12 mg/mL and 20.52 mg/mL
[6]; 0.03% topical, p<0.001
  Protein in aqueous humor, statistical comparison with CTR: statistical significance
